Laboratory results reported in patent publication US20260083851A1 (AVILAR THERAPEUTICS, INC., priority 2022, published 2026).
Read-outs that look alike come from different tables or passages of the source.

Target: T1, ASGP receptor (biotinylated ASGPR) (Homo sapiens, UniProt P07306)
T1 construct: biotin (biotinylated)
T1 sequence (P07306 1-291): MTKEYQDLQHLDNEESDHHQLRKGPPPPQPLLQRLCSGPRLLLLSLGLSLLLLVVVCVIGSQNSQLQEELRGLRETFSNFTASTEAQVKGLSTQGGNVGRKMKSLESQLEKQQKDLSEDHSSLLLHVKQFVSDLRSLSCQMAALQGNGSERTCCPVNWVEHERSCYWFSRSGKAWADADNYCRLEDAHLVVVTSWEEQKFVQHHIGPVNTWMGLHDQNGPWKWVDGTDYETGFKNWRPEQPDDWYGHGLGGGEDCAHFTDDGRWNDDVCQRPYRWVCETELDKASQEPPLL
Type: binding
Conditions: SPR, Biacore 8K, 25° C.

[1] = Table 1B, numeric bound, read-out: ASGPR Kd

Row | SMILES | Kd (Table 1B, read-out: ASGPR Kd) | further results
1 | O=S(=O)(NC[C@H]1OC[C@H](Nc2cncc(C(F)(F)F)n2)[C@@H](O)[C@H]1O)c1ccccc1 [A112, N-(((2R,3R,4R,5S)-3,4-dihydroxy-5-((6-(trifluoromethyl)pyrazin-2-yl)amino)tetrahydro-2H-pyran-2-yl)methyl)benzenesulfonamide] |  | Kd (Table 1A, read-out: ASGPR KD): < 10 µM
2 | O=C(NC[C@H]1OC[C@H](Nc2cncc(C(F)(F)F)n2)[C@@H](O)[C@H]1O)Nc1ccc(C(=O)O)cc1 [A113, 4-(3-(((2R,3R,4R,5S)-3,4-dihydroxy-5-((6-(trifluoromethyl)pyrazin-2-yl)amino)tetrahydro-2H-pyran-2-yl)methyl)ureido)benzoic acid] |  | Kd (Table 1A, read-out: ASGPR KD): < 10 µM
3 | O=C(NC[C@H]1OC[C@H](Nc2cncc(C(F)(F)F)n2)[C@@H](O)[C@H]1O)Nc1ccccc1 [A114, 1-(((2R,3R,4R,5S)-3,4-dihydroxy-5-((6-(trifluoromethyl)pyrazin-2-yl)amino)tetrahydro-2H-pyran-2-yl)methyl)-3-phenylurea] |  | Kd (Table 1A, read-out: ASGPR KD): < 10 µM
4 | O=C(O)CCCCCNC(=O)NC[C@H]1OC[C@H](Nc2cncc(C(F)(F)F)n2)[C@@H](O)[C@H]1O [A115, 6-(3-(((2R,3R,4R,5S)-3,4-dihydroxy-5-((6-(trifluoromethyl)pyrazin-2-yl)amino)tetrahydro-2H-pyran-2-yl)methyl)ureido)hexanoic acid] |  | Kd (Table 1A, read-out: ASGPR KD): < 10 µM
5 | O=C(O)COCCOCC(=O)NC[C@H]1OC[C@H](Nc2ccnc(C(F)(F)F)n2)[C@@H](O)[C@H]1O [A116, 2-(2-(2-((((2R,3R,4R,5S)-3,4-dihydroxy-5-((2-(trifluoromethyl)pyrimidin-4-yl)amino)tetrahydro-2H-pyran-2-yl)methyl)amino)-2-oxoethoxy)ethoxy)acetic acid] |  | Kd (Table 1A, read-out: ASGPR KD): < 10 µM
6 | OC[C@H]1NC[C@H](Nc2nccc(C(F)(F)F)n2)[C@@H](O)[C@H]1O [A117] |  | Kd (Table 1A, read-out: ASGPR KD): < 10 µM
7 | OC[C@H]1NC[C@H](Nc2cncc(C(F)(F)F)n2)[C@@H](O)[C@H]1O [A118] |  | Kd (Table 1A, read-out: ASGPR KD): < 10 µM
8 | OC[C@H]1OC[C@H](Nc2cncc(Br)n2)[C@@H](O)[C@H]1O [A138, (2R,3R,4R,5S)-5-((6-bromopyrazin-2-yl)amino)-2-(hydroxymethyl) tetrahydro-2H-pyran-3,4-diol] |  | Kd (Table 1A, read-out: ASGPR KD): < 10 µM
9 | N#Cc1cc(N[C@H]2CO[C@H](CO)[C@H](O)[C@@H]2O)nc(C(F)(F)F)c1 [A139, 2-(((3S,4R,5R,6R)-4,5-dihydroxy-6-(hydroxymethyl)tetrahydro-2H-pyran-3-yl)amino)-6-(trifluoromethyl)isonicotinonitrile] | < 10 µM | 
10 | OC[C@H]1OC[C@H](Oc2nccc(C(F)(F)F)n2)[C@@H](O)[C@H]1O [A140, (2R,3R,4S,5S)-2-(hydroxymethyl)-5-((4-(trifluoromethyl)pyrimidin-2-yl)oxy)tetrahydro-2H-pyran-3,4-diol] | < 10 µM | 
11 | OC[C@H]1OC[C@H](Oc2cncc(C(F)(F)F)n2)[C@@H](O)[C@H]1O [A141, (2R,3R,4S,5S)-2-(hydroxymethyl)-5-((6-(trifluoromethyl)pyrazin-2-yl)oxy)tetrahydro-2H-pyran-3,4-diol] | < 10 µM | 
12 | OC[C@H]1OC[C@H](Oc2cccc(C(F)(F)F)n2)[C@@H](O)[C@H]1O [A142, (2R,3R,4S,5S)-2-(hydroxymethyl)-5-((6-(trifluoromethyl)pyridin-2-yl)oxy)tetrahydro-2H-pyran-3,4-diol] | < 10 µM | 
13 | OC[C@H]1OC[C@H](Nc2cccc(OC(F)(F)F)n2)[C@@H](O)[C@H]1O [A143, (2R,3R,4R,5S)-2-(hydroxymethyl)-5-((6-(trifluoromethoxy)pyridin-2-yl)amino)tetrahydro-2H-pyran-3,4-diol] | < 10 µM | 
14 | O[C@@H]1[C@H](O)[C@@H](Nc2cccc(OC(F)(F)F)n2)CO[C@@H]1COc1cccc(OC(F)(F)F)n1 [A144, (2R,3R,4R,5S)-5-((6-(trifluoromethoxy)pyridin-2-yl)amino)-2-(((6-(trifluoromethoxy)pyridin-2-yl)oxy)methyl) tetrahydro-2H-pyran-3,4-diol] | < 10 µM | 
15 | OC[C@H]1OC[C@H](Nc2cncc(Cl)n2)[C@@H](O)[C@H]1O [A147, (2R,3R,4R,5S)-5-((6-chloropyrazin-2-yl)amino)-2-(hydroxymethyl) tetrahydro-2H-pyran-3,4-diol] | < 10 µM | 
16 | O=C(c1ccc(Cc2ccccc2)cc1)N1C[C@H](Nc2cncc(C(F)(F)F)n2)[C@@H](O)[C@@H](O)C1 [A148, (4-benzylphenyl)((3S,4R,5S)-3,4-dihydroxy-5-((6-(trifluoromethyl)pyrazin-2-yl)amino)piperidin-1-yl)methanone] | < 10 µM | 
17 | O=C(OCc1ccccc1)N1C[C@H](Nc2cncc(C(F)(F)F)n2)[C@@H](O)[C@@H](O)C1 [A149, benzyl (3S,4R,5S)-3,4-dihydroxy-5-((6-(trifluoromethyl)pyrazin-2-yl)amino)piperidine-1-carboxylate] | < 10 µM | 
18 | O[C@@H]1[C@@H](Nc2cncc(C(F)(F)F)n2)CNC[C@@H]1O [A150, (3S,4R,5S)-5-((6-(trifluoromethyl)pyrazin-2-yl)amino)piperidine-3,4-diol] | < 10 µM | 
19 | COc1cc(N[C@H]2CO[C@H](CO)[C@H](O)[C@@H]2O)nc(C(F)(F)F)c1 [A151, (2R,3R,4R,5S)-2-(hydroxymethyl)-5-((4-methoxy-6-(trifluoromethyl)pyridin-2-yl)amino)tetrahydro-2H-pyran-3,4-diol] | < 10 µM | 
20 | O=C1c2ccccc2CN1C[C@H]1OC[C@H](Nc2cncc(C(F)(F)F)n2)[C@@H](O)[C@H]1O [A152, 2-(((2R,3R,4R,5S)-3,4-dihydroxy-5-((6-(trifluoromethyl)pyrazin-2-yl)amino)tetrahydro-2H-pyran-2-yl)methyl) isoindolin-1-one] | < 10 µM | 
21 | OC[C@H]1OC[C@H](Nc2cccc(Br)n2)[C@@H](O)[C@H]1O [A153, (2R,3R,4R,5S)-5-((6-bromopyridin-2-yl)amino)-2-(hydroxymethyl)tetrahydro-2H-pyran-3,4-diol] | < 10 µM | 
22 | O[C@@H]1[C@H](O)[C@@H](Nc2cncc(F)n2)CO[C@@H]1COc1cncc(F)n1 [A154, (2R,3R,4R,5S)-5-((6-fluoropyrazin-2-yl)amino)-2-(((6-fluoropyrazin-2-yl)oxy)methyl)tetrahydro-2H-pyran-3,4-diol] | < 10 µM | 
23 | C[C@H]1OC[C@H](Nc2cncc(C(F)(F)F)n2)[C@@H](O)[C@H]1O [A155, (2R,3R,4R,5S)-2-methyl-5-((6-(trifluoromethyl)pyrazin-2-yl)amino)tetrahydro-2H-pyran-3,4-diol] | < 10 µM | 
24 | COc1cncnc1N[C@H]1CO[C@H](CO)[C@H](O)[C@@H]1O [A156, (2R,3R,4R,5S)-2-(hydroxymethyl)-5-((5-methoxypyrimidin-4-yl)amino)tetrahydro-2H-pyran-3,4-diol] | 10 to 100 µM | 
25 | O=C1CCCN1C[C@H]1OC[C@H](Nc2cncc(C(F)(F)F)n2)[C@@H](O)[C@H]1O [A157, 1-(((2R,3R,4R,5S)-3,4-dihydroxy-5-((6-(trifluoromethyl)pyrazin-2-yl)amino)tetrahydro-2H-pyran-2-yl)methyl)pyrrolidin-2-one] | < 10 µM | 
26 | OC[C@H]1OC[C@H](NC2CCCC(C(F)(F)F)C2)[C@@H](O)[C@H]1O (stereo partly drawn) [A158, (2R,3R,4R,5S)-2-(hydroxymethyl)-5-((3-(trifluoromethyl)cyclohexyl)amino) tetrahydro-2H-pyran-3,4-diol] |  | Kd [1]: > 30 µM
27 | OC[C@H]1OC[C@H](NC2CCCCC2)[C@@H](O)[C@H]1O [A159, (2R,3R,4R,5S)-5-(cyclohexylamino)-2-(hydroxymethyl)tetrahydro-2H-pyran-3,4-diol] |  | Kd [1]: > 30 µM
